The text below walks through data of patent publication US9771337B2, “Neprilysin inhibitors” (THERAVANCE BIOPHARMA R&D IP, LLC, priority 2011, dated 2017).

T1 sequence (P08473 whole entry): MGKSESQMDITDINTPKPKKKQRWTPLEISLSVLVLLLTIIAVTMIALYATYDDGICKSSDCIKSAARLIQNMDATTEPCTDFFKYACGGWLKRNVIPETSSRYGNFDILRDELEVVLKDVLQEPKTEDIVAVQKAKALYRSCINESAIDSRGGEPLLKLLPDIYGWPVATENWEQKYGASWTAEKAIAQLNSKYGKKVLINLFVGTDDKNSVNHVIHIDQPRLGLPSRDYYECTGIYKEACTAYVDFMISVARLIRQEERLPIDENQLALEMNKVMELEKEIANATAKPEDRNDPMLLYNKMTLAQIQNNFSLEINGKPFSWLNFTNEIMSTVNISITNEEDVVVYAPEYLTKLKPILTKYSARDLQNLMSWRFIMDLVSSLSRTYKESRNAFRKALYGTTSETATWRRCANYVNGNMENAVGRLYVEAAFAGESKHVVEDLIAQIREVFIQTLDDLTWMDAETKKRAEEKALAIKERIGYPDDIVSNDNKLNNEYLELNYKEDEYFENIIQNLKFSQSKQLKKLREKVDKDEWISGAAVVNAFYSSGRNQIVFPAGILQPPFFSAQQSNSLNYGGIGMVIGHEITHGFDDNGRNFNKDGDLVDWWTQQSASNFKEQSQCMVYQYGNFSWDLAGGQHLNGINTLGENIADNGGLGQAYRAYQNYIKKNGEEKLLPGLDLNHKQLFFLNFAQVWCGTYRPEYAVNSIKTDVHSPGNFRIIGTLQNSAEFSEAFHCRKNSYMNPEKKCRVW

The test concerns the target T1, human NEP (Homo sapiens, UniProt P08473).
T1 construct: purchased R&D Systems, Minneapolis, Minn; 1182-ZN
The experiment in a line: In vitro enzyme inhibition assay, inhibitor potency at human NEP. It is filed as biochemical. The conditions noted are these: pKi values at human NEP; recombinant human NEP, fluorogenic peptide substrate 10 μM, 37° C. The method, then: The inhibitory activities of compounds at human and rat neprilysin (EC 3.4.24.11; NEP) and human angiotensin converting enzyme (ACE) were determined using in vitro assays as described below.
Recombinant human NEP and recombinant human ACE were obtained commercially (R&D Systems, Minneapolis, Minn., catalog numbers 1182-ZN and 929-ZN, respectively). The fluorogenic peptide substrate Mca-D-Arg-Arg-Leu-Dap-(Dnp)-OH (Medeiros et al. (1997) Braz. J. Med. Biol. Res. 30:1157-62; Anaspec, San Jose, Calif.) and Abz-Phe-Arg-Lys(Dnp)-Pro-OH (Araujo et al. (2000) Biochemistry 39:8519-8525; Bachem, Torrance, Calif.) were used in the NEP and ACE assays respectively.
The assays were performed in 384-well white opaque plates at 37° C. using the fluorogenic peptide substrates at a concentration of 10 μM in Assay Buffer (NEP: 50 mM HEPES, pH 7.5, 100 mM NaCl, 0.01% polyethylene glycol sorbitan monolaurate (Tween-20), 10 μM ZnSO4; ACE: 50 mM HEPES, pH 7.5, 100 mM NaCl, 0.01% Tween-20, 1 μM ZnSO4).
Test compounds were assayed over the range of concentrations from […] to 20 μM. Test compounds were added to the enzymes and incubated for 30 minute at 37° C. prior to initiating the reaction by the addition of substrate. Reactions were terminated after 20 minutes of incubation at 37° C. by the addition of glacial acetic acid to a final concentration of 3.6% (v/v).
Plates were read on a fluorometer with excitation and emission wavelengths set to 320 nm and 405 nm, respectively. Inhibition constants were obtained by nonlinear regression of the data using the equation (GraphPad Software, Inc., San Diego, Calif.): v=v0/[1+(I/K′)] where v is the reaction rate, v0 is the uninhibited reaction rate, I is the inhibitor concentration and K′ is the apparent inhibition constant.
Compounds of the invention were tested in this assay and found to have pKi values at human NEP as follows.
In general, Ki refers to a dissociation constant, usually derived from enzyme kinetics or from competition with a known ligand. In the case of `O=C(O)c1ccc(C(=O)N[C@H](Cc2ccccc2Cl)[C@@H](O)C(=O)O)o1` [Example 2-32, 5-[(1R,2R)-2-Carboxy-1-(2-chloro-benzyl)-2-hydroxy-ethylcarbamoyl]-furan-2-carboxylic acid], the Ki is 12.6 to 100 nM.

For `O=C(N[C@H](Cc1ccccc1Cl)[C@@H](O)C(=O)O)c1ccc2ncc(Br)n2c1` [Example 2-33, (2R,3R)-3-[(3-Bromo-imidazo[1,2-a]pyridine-6-carbonyl)-amino]-4-(2-chloro-phenyl)-2-hydroxy-butyric acid], the Ki is 12.6 to 100 nM.

As to `O=C(N[C@H](Cc1ccccc1Cl)[C@@H](O)C(=O)O)c1cnc(O)cn1` [Example 2-34, (2R,3R)-4-(2-Chloro-phenyl)-2-hydroxy-3-[(5-hydroxy-pyrazine-2-carbonyl)-amino]-butyric acid], the inhibition constant Ki is 12.6 to 100 nM.

`O=C(N[C@H](Cc1ccccc1Cl)[C@@H](O)C(=O)O)c1cnc(O)nc1` [Example 2-35, (2R,3R)-4-(2-Chloro-phenyl)-2-hydroxy-3-[(2-hydroxy-pyrimidine-5-carbonyl)-amino]-butyric acid]: the Ki was at most 1 nM.

With `O=C(N[C@H](Cc1ccccc1Cl)[C@@H](O)C(=O)O)c1cnc2[nH]cnc2c1` [Example 2-36, (2R,3R)-4-(2-Chloro-phenyl)-2-hydroxy-3-[(3H-imidazo[4,5-b]pyridine-6-carbonyl)-amino]-butyric acid], the inhibition constant Ki is 12.6 to 100 nM.

Consider `O=C(N[C@H](Cc1ccccc1Cl)[C@@H](O)C(=O)O)c1cnc2nn[nH]c2c1` [Example 2-37, (2R,3R)-4-(2-Chloro-phenyl)-2-hydroxy-3-[(1H-[1,2,3]triazolo[4,5-b]pyridine-6-carbonyl)-amino]-butyric acid], for which the Ki is 1.26 to 10 nM.

For `O=C1CCC(C(=O)N[C@H](Cc2ccccc2Cl)[C@@H](O)C(=O)O)=NN1` [Example 2-39, (2R,3R)-4-(2-Chloro-phenyl)-2-hydroxy-3-[(6-oxo-1,4,5,6-tetrahydro-pyridazine-3-carbonyl)-amino]-butyric acid], the Ki was 12.6 to 100 nM.

Take `O=C(N[C@H](Cc1ccccc1C(F)(F)F)[C@@H](O)C(=O)O)c1cnc2[nH]nnc2c1` [Example 3, (2R,3R)-2-Hydroxy-3-[(3H-[1,2,3]triazolo[4,5-b]pyridine-6-carbonyl)-amino]-4-(2-trifluoromethyl-phenyl)-butyric acid]: the inhibitory constant (Ki) is 1.26 to 10 nM.

For the compound `O=C(N[C@H](Cc1ccccc1)[C@@H](O)C(=O)O)c1ccc2c(c1)N1CCCC1C(=O)N2` (stereo partly drawn) [Example 5-1, (2R,3R)-2-Hydroxy-3-[(4-oxo-1,2,3,3a,4,5-hexahydro-pyrrolo[1,2-a]quinoxaline-8-carbonyl)-amino]-4-phenyl-butyric acid], the Ki is 12.6 to 100 nM.

In the case of `CCCc1nc2c(C)cc(C(=O)N[C@H](Cc3ccccc3)[C@@H](O)C(=O)O)cc2n1Cc1ccc(Br)nc1` [Example 5-2, (2R,3R)-3-{[3-(6-Bromo-pyridin-3-ylmethyl)-7-methyl-2-propyl-3H-benzoimidazole-5-carbonyl]-amino}-2-hydroxy-4-phenyl-butyric acid], the Ki was 12.6 to 100 nM.

With `CCCc1nc2c(C)cc(C(=O)N[C@H](Cc3ccccc3)[C@@H](O)C(=O)O)cc2n1Cc1cccnc1` [Example 5-3, (2R,3R)-2-Hydroxy-3-[(7-methyl-2-propyl-3-pyridin-3-ylmethyl-3H-benzoimidazole-5-carbonyl)-amino]-4-phenyl-butyric acid], the Ki is 12.6 to 100 nM.

Take `CCCc1nc2c(C)cc(C(=O)N[C@H](Cc3ccccc3)[C@@H](O)C(=O)O)cc2n1CC(=O)O` [Example 5-5, (2R,3R)-3-[(3-Carboxymethyl-7-methyl-2-propyl-3H-benzoimidazole-5-carbonyl)-amino]-2-hydroxy-4-phenyl-butyric acid]: the Ki was 12.6 to 100 nM.

On to `CCCc1nc2c(C)cc(C(=O)N[C@H](Cc3ccccc3)[C@@H](O)C(=O)O)cc2n1Cc1ccccc1OC` [Example 5-6, (2R,3R)-2-Hydroxy-3-{[3-(2-methoxy-benzyl)-7-methyl-2-propyl-3H-benzoimidazole-5-carbonyl]-amino}-4-phenyl-butyric acid], for which the Ki is 12.6 to 100 nM.

In the case of `CCCc1nc2c(C)cc(C(=O)N[C@H](Cc3ccccc3)[C@@H](O)C(=O)O)cc2n1Cc1ccc(OC)cc1` [Example 5-7, (2R,3R)-2-Hydroxy-3-{[3-(4-methoxy-benzyl)-7-methyl-2-propyl-3H-benzoimidazole-5-carbonyl]-amino}-4-phenyl-butyric acid], the Ki is 12.6 to 100 nM.

Regarding `CCCc1nc2c(C)cc(C(=O)N[C@H](Cc3ccccc3)[C@@H](O)C(=O)O)cc2n1CC(N)=O` [Example 5-8, (2R,3R)-3-[(3-Carbamoylmethyl-7-methyl-2-propyl-3H-benzoimidazole-5-carbonyl)-amino]-2-hydroxy-4-phenyl-butyric acid], the Ki is 12.6 to 100 nM.

On to `CCc1nc2c(Cl)cc(C(=O)N[C@H](Cc3ccccc3)[C@@H](O)C(=O)O)cc2[nH]1` [Example 5-9, (2R,3R)-3-[(7-Chloro-2-ethyl-3H-benzoimidazole-5-carbonyl)-amino]-2-hydroxy-4-phenyl-butyric acid], for which the Ki was 12.6 to 100 nM.

As to `O=C(N[C@H](Cc1ccccc1)[C@@H](O)C(=O)O)c1ccc2nn[nH]c2c1` [Example 5-11, (2R,3R)-3-[(3H-Benzotriazole-5-carbonyl)-amino]-2-hydroxy-4-phenyl-butyric acid], the Ki was 12.6 to 100 nM.

As for `O=C(N[C@H](Cc1ccccc1)[C@@H](O)C(=O)O)c1cc(Cl)c2nn[nH]c2c1` [Example 5-13, (2R,3R)-3-[(7-Chloro-3H-benzotriazole-5-carbonyl)-amino]-2-hydroxy-4-phenyl-butyric acid], the Ki is 12.6 to 100 nM.

Turning to `Cc1cc(C(=O)N[C@H](Cc2ccccc2)[C@@H](O)C(=O)O)cc2[nH]nnc12` [Example 5-15, (2R,3R)-2-Hydroxy-3-[(7-methyl-3H-benzotriazole-5-carbonyl)-amino]-4-phenyl-butyric acid], the Ki was 12.6 to 100 nM.

Turning to `O=C(N[C@H](Cc1ccccc1)[C@@H](O)C(=O)O)c1cc(F)c2[nH]nnc2c1` [Example 5-16, (2R,3R)-3-[(7-Fluoro-1H-benzotriazole-5-carbonyl)-amino]-2-hydroxy-4-phenyl-butyric acid], the Ki was 12.6 to 100 nM.

Regarding `O=C(O)c1cnc(C(=O)N[C@H](Cc2ccccc2)[C@@H](O)C(=O)O)cn1` [Example 5-18, 5-((1R,2R)-1-Benzyl-2-carboxy-2-hydroxy-ethylcarbamoyl)-pyrazine-2-carboxylic acid], the inhibition constant Ki was 12.6 to 100 nM.

Consider `O=C(N[C@H](Cc1ccccc1)[C@@H](O)C(=O)O)c1cnc(-c2ccccc2C(=O)O)cn1` [Example 5-19, 2-[5-((1R,2R)-1-Benzyl-2-carboxy-2-hydroxy-ethylcarbamoyl)-pyrazin-2-yl]-benzoic acid], for which the inhibition constant Ki is 12.6 to 100 nM.

For the compound `O=C(N[C@H](Cc1ccccc1)[C@@H](O)C(=O)O)c1ccc(C(=O)O)nc1` [Example 5-20, 5-((1R,2R)-1-Benzyl-2-carboxy-2-hydroxy-ethylcarbamoyl)-pyridine-2-carboxylic acid], the Ki is 12.6 to 100 nM.

For the compound `O=C(N[C@H](Cc1ccccc1)[C@@H](O)C(=O)O)c1ccc(-c2ccccc2C(=O)O)nc1` [Example 5-21, 2-[5-((1R,2R)-1-Benzyl-2-carboxy-2-hydroxy-ethylcarbamoyl)-pyridin-2-yl]-benzoic acid], the Ki was 1.26 to 10 nM.
